Source: ChEMBL document CHEMBL1141820, “Cytotoxic polyacetylenes from the marine sponge Petrosia sp” (1999)
Values after ≈ are worked out from the molar mass of the structure shown.

Experiments:
Assay type in all cases: functional
Details in all cases: read-out: ED50 (the source's name)
[1] = test system: A549; assay: Cytotoxicity against human A549 cells
[2] = test system: XF498; assay: Cytotoxicity against human XF498 cells
[3] = test system: SK-OV-3; assay: Cytotoxicity against human SKOV3 cells
[4] = test system: SK-MEL-2; assay: Cytotoxicity against human SK-MEL-2 cells
[5] = test system: HCT-15; assay: Cytotoxicity against human HCT-15 cells

Structure (SMILES) | EC50 [1] | EC50 [2] | EC50 [3] | EC50 [4] | EC50 [5]
C#C/C=C/[C@@H](O)CCCCCCCCC/C=C/CC#CCCCCCC/C=C/[C@H](O)C#C [DIDEOXYPETROSYNOL E] | 1.3 mg/L (≈ 2.98 µM) | 0.6 mg/L (≈ 1.37 µM) | 0.1 mg/L (≈ 0.229 µM) | 0.1 mg/L (≈ 0.229 µM) | 0.8 mg/L (≈ 1.83 µM)
C#C/C=C\CCCCCCCCCCCCCC/C=C/CCCC/C=C/CC/C=C/C#C[C@@H](O)C#CCCCCCC/C=C/[C@H](O)C#C [PETROTETRAYNDIOL A] | 1.6 mg/L (≈ 2.45 µM) | 1.7 mg/L (≈ 2.6 µM) | 0.5 mg/L (≈ 0.766 µM) | 0.9 mg/L (≈ 1.38 µM) | 1 mg/L (≈ 1.53 µM)
C#C/C=C\CCCCCCCCCCCCCC/C=C/CCCC/C=C/CCCCC#C[C@@H](O)C#CCCCCCCCC[C@H](O)C#C [PETROTETRAYNDIOL B] | 1.7 mg/L (≈ 2.59 µM) | > 3 mg/L | 2.2 mg/L (≈ 3.35 µM) | 1.9 mg/L (≈ 2.89 µM) | 3.7 mg/L (≈ 5.63 µM)
C#CC(O)/C=C/CCCCCCC#CC/C=C/CCCCCCCCC/C=C/C(O)C#C (stereo not given) | 1.4 mg/L (≈ 3.21 µM) | 1.2 mg/L (≈ 2.75 µM) | 0.1 mg/L (≈ 0.229 µM) | 0.2 mg/L (≈ 0.458 µM) | 1.2 mg/L (≈ 2.75 µM)
COc1cccc2c1C(=O)c1c(O)c3c(c(O)c1C2=O)C[C@@](O)(C(=O)CO)C[C@@H]3O[C@H]1C[C@H](N)[C@H](O)[C@H](C)O1 [DOXORUBICIN] | 0.1 mg/L (≈ 0.184 µM) | 0.2 mg/L (≈ 0.368 µM) | 0.2 mg/L (≈ 0.368 µM) | 0.2 mg/L (≈ 0.368 µM) | 0.9 mg/L (≈ 1.66 µM)
C#C/C=C\CCCCCCCCCCCCCC/C=C/CCCC/C=C/CCCCC#C[C@@H](O)C#CCCCCCC/C=C/[C@H](O)C#C | 1.1 mg/L (≈ 1.68 µM) | 1.7 mg/L (≈ 2.6 µM) | 0.6 mg/L (≈ 0.916 µM) | 1.1 mg/L (≈ 1.68 µM) | 1 mg/L (≈ 1.53 µM)
C#C[C@@H](O)/C=C/CCCCCCC#CC/C=C/C/C=C/CCCCCCCC[C@H](O)C#C [DIDEOXYPETROSYNOL F] | > 3 mg/L | > 3 mg/L | > 3 mg/L | > 3 mg/L | > 3 mg/L
